Results on 30 compounds are retold here after patent US20090036422A1 (priority 2007, published 2009).

Where a name gives a salt, the structure may show the parent alone.

The target of this assay is T1, human orexin-2 (hOX2) receptor (Homo sapiens, UniProt O43614).
T1 construct: expressed in transfected cells
T1 sequence (O43614 1-444): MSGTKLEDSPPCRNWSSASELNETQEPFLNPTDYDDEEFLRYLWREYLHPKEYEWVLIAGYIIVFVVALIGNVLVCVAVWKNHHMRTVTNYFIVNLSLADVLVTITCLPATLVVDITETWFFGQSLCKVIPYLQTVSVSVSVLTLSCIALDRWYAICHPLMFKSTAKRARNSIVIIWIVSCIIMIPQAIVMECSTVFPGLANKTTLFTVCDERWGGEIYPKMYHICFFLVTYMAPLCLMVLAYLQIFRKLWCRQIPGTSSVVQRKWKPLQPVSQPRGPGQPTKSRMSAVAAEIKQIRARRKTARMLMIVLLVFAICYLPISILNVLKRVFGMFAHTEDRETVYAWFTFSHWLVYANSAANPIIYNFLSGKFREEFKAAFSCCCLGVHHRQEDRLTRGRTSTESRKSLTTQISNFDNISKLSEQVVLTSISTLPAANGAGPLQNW
Nature of the assay: Intracellular Ca2+ mobilization assay (FLIPR), CHO(dHFr-) cells expressing hOX2, orexin-A at EC80 as agonist. As to conditions: Kb=IC50/(1+[A]/EC50); CHO(dHFr-)-OX2R cells, antagonist applied 25 min before orexin-A EC80. It counts as cell-based. In a few lines:
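Fluo-4-loaded CHO(dHFr−) cells stably expressing hOX2 were preincubated 25 min at 37 °C with antagonist (11 concentrations, 0.0001–10 μM), then challenged with orexin-A at its daily-determined EC80. Peak fluorescence over basal read by FLIPR; IC50 from Hill fit, Kb via Kb=IC50/(1+[A]/EC50).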
One may read the Kb as the affinity of an antagonist, worked out from how it opposes an agonist. Higher therefore signals lower antagonist affinity. In turn, `Cc1cccc(CCN(C(=O)[C@@H](N)c2ccccc2)c2ccc(C)c(C)c2)c1` [Example 181, (S)-2-Amino-N-(3,4-dimethyl-phenyl)-2-phenyl-N-(2-m-tolyl-ethyl)-acetamide hydrochloride] came in with an antagonist dissociation constant (Kb) of 0.0708 µM.

Take `Cc1ccc(N(CCc2cccc(F)c2)C(=O)[C@@H](N)c2ccccc2)cc1C` [Example 182, (S)-2-Amino-N-(3,4-dimethyl-phenyl)-N-[2-(3-fluoro-phenyl)-ethyl]-2-phenyl-acetamide hydrochloride]: the Kb was found to be 0.0283 µM.

In turn, `Cc1ccc(N(CCc2cccc(Cl)c2)C(=O)[C@@H](N)c2ccccc2)cc1C` [Example 183, (S)-2-Amino-N-[2-(3-chloro-phenyl)-ethyl]-N-(3,4-dimethyl-phenyl)-2-phenyl-acetamide hydrochloride] gave a Kb of 0.0496 µM. Compared with the last compound, the Kb is about 1.8-fold higher.

With `Cc1ccc(N(CCc2cccc(C(F)(F)F)c2)C(=O)[C@@H](N)c2ccccc2)cc1C` [Example 184, (S)-2-Amino-N-(3,4-dimethyl-phenyl)-2-phenyl-N-[2-(3-trifluoromethyl-phenyl)-ethyl]-acetamide hydrochloride], the antagonist equilibrium constant (Kb) is 0.0249 µM.

In the case of `Cc1ccc(N(CCc2ccccc2C)C(=O)[C@@H](N)c2ccccc2)cc1C` [Example 185, (S)-2-Amino-N-(3,4-dimethyl-phenyl)-2-phenyl-N-(2-o-tolyl-ethyl)-acetamide hydrochloride], the Kb was 0.0305 µM.

`Cc1ccc(N(CCc2ccc(C(F)(F)F)c(F)c2)C(=O)[C@@H](N)c2ccccc2)cc1C` [Example 186, (S)-2-Amino-N-(3,4-dimethyl-phenyl)-N-[2-(3-fluoro-4-trifluoromethyl-phenyl)-ethyl]-2-phenyl-acetamide hydrochloride] returned a Kb of 0.0156 µM.

`Cc1ccc(N(CCc2ccc(F)c(C(F)(F)F)c2)C(=O)[C@@H](N)c2ccccc2)cc1C` [Example 187, (S)-2-Amino-N-(3,4-dimethyl-phenyl)-N-[2-(4-fluoro-3-trifluoromethyl-phenyl)-ethyl]-2-phenyl-acetamide hydrochloride]: the antagonist equilibrium constant (Kb) was determined as 0.0327 µM.

Consider `Cc1ccc(N(CCc2ccc(F)cc2F)C(=O)[C@@H](N)c2ccccc2)cc1C` [Example 188, (S)-2-Amino-N-[2-(2,4-difluoro-phenyl)-ethyl]-N-(3,4-dimethyl-phenyl)-2-phenyl-acetamide hydrochloride], for which the antagonist equilibrium constant (Kb) worked out at 0.0269 µM. The Kb values of the last two compounds are within 1.5-fold of each other.

As to `Cc1ccc(N(CCc2ccc(F)c(F)c2)C(=O)[C@@H](N)c2ccccc2)cc1C` [Example 189, (S)-2-Amino-N-[2-(3,4-difluoro-phenyl)-ethyl]-N-(3,4-dimethyl-phenyl)-2-phenyl-acetamide hydrochloride], the Kb was determined as 0.0071 µM.

In the case of `Cc1ccc(N(CCc2ccc(C)c(F)c2)C(=O)[C@@H](N)c2ccccc2)cc1C` [Example 190, (S)-2-Amino-N-(3,4-dimethyl-phenyl)-N-[2-(3-fluoro-4-methyl-phenyl)-ethyl]-2-phenyl-acetamide hydrochloride], the antagonist equilibrium constant (Kb) worked out at 0.0091 µM. This Kb and that of the compound before are within 1.5-fold of each other.

In the case of `Cc1ccc(N(CCc2cccc(F)c2F)C(=O)[C@@H](N)c2ccccc2)cc1C` [Example 191, (S)-2-Amino-N-[2-(2,3-difluoro-phenyl)-ethyl]-N-(3,4-dimethyl-phenyl)-2-phenyl-acetamide hydrochloride], the Kb came to 0.0215 µM. Compared with the last compound, the Kb is about 2.4-fold higher.

`Cc1ccc(N(CCc2ccc(Cl)cc2F)C(=O)[C@@H](N)c2ccccc2)cc1C` [Example 192, (S)-2-Amino-N-[2-(4-chloro-2-fluoro-phenyl)-ethyl]-N-(3,4-dimethyl-phenyl)-2-phenyl-acetamide; hydrochloride] returned a Kb of 0.0148 µM. This Kb and that of the compound before are within 1.5-fold of each other.

In turn, `Cc1ccc(N(CCc2cc(C(F)(F)F)ccc2F)C(=O)[C@@H](N)c2ccccc2)cc1C` [Example 193, (S)-2-Amino-N-(3,4-dimethyl-phenyl)-N-[2-(2-fluoro-5-trifluoromethyl-phenyl)-ethyl]-2-phenyl-acetamide; hydrochloride] returned a Kb of 0.016 µM. This Kb and that of the compound before are within 1.5-fold of each other.

In turn, `COc1ccccc1CCN(C(=O)[C@@H](N)c1ccccc1)c1ccc(C)c(C)c1` [Example 194, (S)-2-Amino-N-(3,4-dimethyl-phenyl)-N-[2-(2-methoxy-phenyl)-ethyl]-2-phenyl-acetamide hydrochloride] registered a Kb of 0.0052 µM. Against the preceding compound, the Kb is about 3.1-fold lower.

As to `Cc1ccc(N(CCc2cccc(C(F)(F)F)c2F)C(=O)[C@@H](N)c2ccccc2)cc1C` [Example 195, (S)-2-Amino-N-(3,4-dimethyl-phenyl)-N-[2-(2-fluoro-3-trifluoromethyl-phenyl)-ethyl]-2-phenyl-acetamide hydrochloride], the Kb came out at 0.0176 µM.

Regarding `Cc1ccc(N(CCc2ccc(C(F)(F)F)cc2F)C(=O)[C@@H](N)c2ccccc2)cc1C` [Example 196, (S)-2-Amino-N-(3,4-dimethyl-phenyl)-N-[2-(2-fluoro-4-trifluoromethyl-phenyl)-ethyl]-2-phenyl-acetamide hydrochloride], the antagonist equilibrium constant (Kb) is 0.0171 µM. The Kb values of the last two compounds are within 1.5-fold of each other.

For the compound `Cc1ccc(N(CCc2ccc(C(F)(F)F)c(F)c2F)C(=O)[C@@H](N)c2ccccc2)cc1C` [Example 197, (S)-2-Amino-N-[2-(2,3-difluoro-4-trifluoromethyl-phenyl)-ethyl]-N-(3,4-dimethyl-phenyl)-2-phenyl-acetamide hydrochloride], the Kb stood at 0.0067 µM.

Consider `Cc1ccc(N(CCc2ccccc2)C(=O)[C@@H](N)c2ccccc2)cc1C` [Example 199, (S)-2-Amino-N-(3,4-dimethyl-phenyl)-N-phenethyl-2-phenyl-acetamide hydrochloride], for which the Kb is 0.0489 µM.

Consider `Cc1ccc(N(CCc2ccc(Cl)c(F)c2)C(=O)[C@@H](N)c2ccccc2)cc1C` [Example 200, (S)-2-Amino-N-[2-(4-chloro-3-fluoro-phenyl)-ethyl]-N-(3,4-dimethyl-phenyl)-2-phenyl-acetamide hydrochloride], for which the antagonist dissociation constant (Kb) is 0.0143 µM.

Turning to `Cc1ccc(N(CCc2cc(F)cc(C(F)(F)F)c2)C(=O)[C@@H](N)c2ccccc2)cc1C` [Example 201, (S)-2-Amino-N-(3,4-dimethyl-phenyl)-N-[2-(3-fluoro-5-trifluoromethyl-phenyl)-ethyl]-2-phenyl-acetamide hydrochloride], the Kb stood at 0.247 µM.

`Cc1ccc(N(CCc2c(F)cc(C(F)(F)F)c(F)c2F)C(=O)[C@@H](N)c2ccccc2)cc1C` [Example 202, (S)-2-Amino-N-(3,4-dimethyl-phenyl)-2-phenyl-N-[2-(2,3,6-trifluoro-4-trifluoromethyl-phenyl)-ethyl]-acetamide hydrochloride] gave a Kb of 0.0015 µM. Compared with the last compound, the Kb is about 160-fold lower.

Compound `Cc1ccc(N(CCc2cc(Cl)ccc2Cl)C(=O)[C@@H](N)c2ccccc2)cc1C` [Example 203, (S)-2-Amino-N-[2-(2,5-dichloro-phenyl)-ethyl]-N-(3,4-dimethyl-phenyl)-2-phenyl-acetamide hydrochloride] came in with an antagonist equilibrium constant (Kb) of 0.0996 µM.

`Cc1ccc(N(CCc2cccc(Cl)c2F)C(=O)[C@@H](N)c2ccccc2)cc1C` [Example 204, (S)-2-Amino-N-[2-(3-chloro-2-fluoro-phenyl)-ethyl]-N-(3,4-dimethyl-phenyl)-2-phenyl-acetamide hydrochloride]: the Kb stood at 0.0178 µM. Compared with the last compound, the Kb is about 5.6-fold lower.

In turn, `Cc1ccc(N(CCc2ccc(Cl)cc2Cl)C(=O)[C@@H](N)c2ccccc2)cc1C` [Example 205, (S)-2-Amino-N-[2-(2,4-dichloro-phenyl)-ethyl]-N-(3,4-dimethyl-phenyl)-2-phenyl-acetamide hydrochloride] had an antagonist equilibrium constant (Kb) of 0.0829 µM.

In the case of `Cc1ccc(N(CCc2cccc(O)c2)C(=O)[C@@H](N)c2ccccc2)cc1C` [Example 206, (S)-2-Amino-N-(3,4-dimethyl-phenyl)-N-[2-(3-hydroxy-phenyl)-ethyl]-2-phenyl-acetamide hydrochloride], the antagonist dissociation constant (Kb) came to 0.0469 µM.

With `Cc1ccc(N(CCc2cc(F)cc(F)c2)C(=O)[C@@H](N)c2ccccc2)cc1C` [Example 208, (S)-2-Amino-N-[2-(3,5-difluoro-phenyl)-ethyl]-N-(3,4-dimethyl-phenyl)-2-phenyl-acetamide hydrochloride], the antagonist dissociation constant (Kb) was determined as 0.0231 µM.

The compound `Cc1ccc(N(CCc2cc(F)cc(Cl)c2)C(=O)[C@@H](N)c2ccccc2)cc1C` [Example 209, (S)-2-Amino-N-[2-(3-chloro-5-fluoro-phenyl)-ethyl]-N-(3,4-dimethyl-phenyl)-2-phenyl-acetamide hydrochloride] gave an antagonist equilibrium constant (Kb) of 0.0486 µM.

`Cc1ccc(N(CCc2ccc(OC(F)F)cc2)C(=O)[C@@H](N)c2ccccc2)cc1C` [Example 210, (S)-2-Amino-N-[2-(4-difluoromethoxy-phenyl)-ethyl]-N-(3,4-dimethyl-phenyl)-2-phenyl-acetamide hydrochloride]: the antagonist dissociation constant (Kb) stood at 0.0077 µM. This Kb lies about 6.3-fold lower than the previous one.

In the case of `Cc1ccc(N(CCc2c(F)cc(C(F)(F)F)c(F)c2F)C(=O)/C(=N/O)c2ccccc2)cc1C` [Example 211, N-(3,4-Dimethyl-phenyl)-2-[hydroxyimino]-2-phenyl-N-[2-(2,3,6-trifluoro-4-trifluoromethyl-phenyl)-ethyl]-acetamide], the antagonist dissociation constant (Kb) came to 0.0222 µM.

Compound `Cc1ccc(N(CCc2ccc(C#N)cc2)C(=O)[C@@H](N)c2ccccc2)cc1C` [Example 212, (S)-2-Amino-N-[2-(4-cyano-phenyl)-ethyl]-N-(3,4-dimethyl-phenyl)-2-phenyl-acetamide hydrochloride] came in with an antagonist dissociation constant (Kb) of 0.0343 µM.
